Measured values taken from US20060293323A1, “Therapeutic Combinations of erb B Kinase Inhibitors and Antineoplastic Therapies” (priority 2002, published 2006).
Counter-ions that a name gives are not always drawn.

How the values were obtained:
[1] = system: H125 human non-small cell lung cancer xenograft; format: in vivo; details: CI-1033 PO days 19-23 and 26-30; docetaxel IV days 19, 23, 27
Method: (§1) On Day 0 of the test, each mouse was surgically implanted (subcutaneously) with a fragment of tumor weighing approximately 30 mg. The mice were weighed weekly, and tumor size (width and length in mm) were measured three times each week with standard calipers. Tumor mass for each animal was calculated according to the formula: [formula] where “a” is width of the tumor in mm, and “b” is the length in mm. Evaluation of anticancer activity was evaluated based on the formula T-C, where “T” and “C” are the median time (in days) required for the treated and control (respectively) tumors to reach a pre-determined size of 750 mg (the “evaluation size”). […] Standard agents were diluted as described in the package inserts and administered at various dosage levels in 0.5 mL injections.
(§2) In each experiment, mice bearing established tumors were randomized into one of four treatment groups. One group served as control treatment groups. […] The third group was further divided into four subgroups, each of which received the designated standard agent by the route and schedules indicated below.
(§3) Group 4 was further subdivided into groups receiving combination therapy.

[2] = system: Rif-1 sarcoma; assay: Rif-1 sarcoma, CI-1033 with multiple doses of radiation; format: in vivo, murine
Description: Radiation at 5 Gy for 5 days produced a tumor growth delay of 28.5 days. […] Data representative of this effect is provided on Table I and FIG. 2.

[3] = system: murine colon carcinoma, C26; assay: Subcutaneous murine colon carcinoma C26, CI-1033 and capecitabine; format: in vivo; details: for optimum tumor growth delay as single agent: CI-1033 40, 20, 10 mg/kg PO, capecitabine 750, 500 mg/kg PO days 14-16, 21-23, 28-30; for tumor free survivors: single agents or combinations
Method: as §1, §2, §3
Capecitabine was administered PO at doses of 750 and 500 mg/kg on days 14-16, 21-23, and 28-30.

[4] = system: NSCLC, renal cell cancer; assay: Clinical administration of CI-1033 alone; format: in vivo, human; details: repeated courses and prolonged exposures, patients
Description: The treatment may be prolonged, with or without an off drug rest period.

[5] = system: SCC-7 Murine Squamous Cell Carcinoma; assay: SCC-7 murine squamous cell carcinoma, CI-1033 with single-dose radiation
Method: Two studies were conducted. […] Radiation was delivered as either a single dose or as multiple fractions over a 5-day period.

[6] = system: L3.6pl human pancreatic carcinoma; assay: Orthotopically implanted L3.6pl human pancreatic carcinoma in nude mice, CI-1033 and gemcitabine; format: in vivo; details: for loss of initial body weight during therapy: once daily, 5 days per week, 4 weeks
[7] = system: A431 human epidermoid, LX-1 lung, A549 lung and GEO colon carcinomas; details: several human tumor xenografts; cited from earlier work
[8] = system: OVCAR-5 Human Ovarian Cancer xenografts; assay: Advanced OVCAR-5 xenografts, CI-1033 and cisplatin; format: in vivo
Method: One group served as control treatment groups.
Cisplatin at doses of 12, 6, 3, and 1.5 mg/kg was administered IV on days 28, 32, and 34.

[9] = system: H125 human non-small cell lung cancer xenograft; assay: in vivo
Method: as §1, §2, §3
(§4) Etoposide was administered IP at doses of 80, 50, and 31 mg/kg on days 12, 16 and 20.

[10] = in vivo; details: female, nude, mouse, in vivo, ip
Method: as §1, §2, §3, §4

[11] = system: MDA-MB-453 human breast carcinoma cells; assay: Paclitaxel-induced apoptosis in vitro, paclitaxel and CI-1033 alone or in combination; format: cell-based; details: 3-day exposure to paclitaxel alone
Description: However, none of the inhibitors of the erbB family tyrosine kinases described above are irreversible and are pan erbB tyrosine kinase inhibitors. […] [Inoue, Clin. Cancer Res. 6:4874-84, 2000.]

[12] = system: H125 human cell lung carcinoma xenografts; format: in vivo; details: CI-1033 orally days 32-35; topotecan IP days 26-30
Method: as §1, §2, §3

[13] = CI-1033 5 mg/kg PO D 7-18 plus X-ray 10 Gy TO D 7
[14] = CI-1033 10 mg/kg PO D 7-18, no X-ray
[15] = CI-1033 10 mg/kg PO D 7-18 plus X-ray 10 Gy TO D 7
[16] = CI-1033 20 mg/kg PO D 7-18, no X-ray
[17] = CI-1033 20 mg/kg PO D 7-18 plus X-ray 10 Gy TO D 7
[18] = CI-1033 40 mg/kg PO D 7-18, no X-ray
[19] = CI-1033 40 mg/kg PO D 7-18 plus X-ray 10 Gy TO D 7
[20] = capecitabine single agent or capecitabine 750 or 500 mg/kg with CI-1033

SMILES: C=CC(=O)Nc1cc2c(Nc3ccc(F)c(Cl)c3)ncnc2cc1OCCCN1CCOCC1 [CI-1033, N-[4-(3-chloro-4-fluoro-phenylamino)-7-(3-morpholin-4-yl-propoxy)-quinazolin-6-yl]-acrylamide]
- optimum tumor growth delay as single agent [1]: 11.7 days
- enhancement compared to radiation alone ([2]; 5 Gy radiation for 5 days, each 1 hour after daily CI-1033): 42%
- tumor growth delay ([2]; CI-1033 alone, 5-day treatment schedule): 3.7 days
- optimum tumor growth delay as single agent [3]: 3.6 days
- tumor free survivors [3]: 0%
- cumulative toxicity [4]: no evidence of cumulative toxicity
- % Weight Change (maximum treatment-related weight loss) [5, 13]: −15%
- CR (complete response) [5, 13]: 2/6
- T − C [5, 13]: 11.1 days
- Toxic Deaths [5, 13]: 0/6
- % Weight Change (maximum treatment-related weight loss) [5, 14]: −1%
- Toxic Deaths [5, 14]: 0/6
- T − C ([5]; CI-1033 10 mg/kg PO D 7-18, no X-ray, evaluation size 750 mg): 1.3 days
- % Weight Change (maximum treatment-related weight loss) [5, 15]: −13%
- PR (partial response) [5, 15]: 1/6
- T − C [5, 15]: 9.7 days
- Toxic Deaths [5, 15]: 0/6
- % Weight Change (maximum treatment-related weight loss) [5, 16]: −1%
- Toxic Deaths [5, 16]: 0/6
- T − C ([5]; CI-1033 20 mg/kg PO D 7-18, no X-ray, evaluation size 750 mg): 0.2 days
- % Weight Change (maximum treatment-related weight loss) [5, 17]: −15%
- CR (complete response) [5, 17]: 2/6
- PR (partial response) [5, 17]: 1/6
- T − C [5, 17]: 20.4 days
- Toxic Deaths [5, 17]: 0/6
- % Weight Change (maximum treatment-related weight loss) [5, 18]: −2%
- Toxic Deaths [5, 18]: 0/6
- T − C ([5]; CI-1033 40 mg/kg PO D 7-18, no X-ray, evaluation size 750 mg): 0.9 days
- % Weight Change (maximum treatment-related weight loss) [5, 19]: −14%
- CR (complete response) [5, 19]: 5/6
- T − C [5, 19]: 26.0 days
- Toxic Deaths [5, 19]: 0/6
- enhancement of antitumor effect by combination with radiation ([5]; single-dose radiation 1 hour after first of 12 PO doses of CI-1033): 91%
- loss of initial body weight during therapy ([6]; CI-1033 10 mg/kg orally): 6%
- loss of initial body weight during therapy ([6]; CI-1033 30 mg/kg orally): 9%
- body weight between the end of therapy and terminal sacrifice ([6]; CI-1033 10 and 30 mg/kg): gained weight

SMILES: COc1cc2ncnc(Nc3ccc(F)c(Cl)c3)c2cc1OCCCN1CCOCC1 [Iressa]
- therapeutic effect of combination with paclitaxel versus either agent alone [7]: greater therapeutic effect

SMILES: CCCCCOC(=O)Nc1nc(=O)n([C@@H]2O[C@H](C)[C@@H](O)[C@H]2O)cc1F [capecitabine, 5′-deoxy-5-fluoro-N-[(pentyloxy)carbonyl]-cytidine]
- optimum tumor growth delay as single agent [3]: 22.5 days
- complete responses [3, 20]: 3/6
- partial responses [3, 20]: 2/6
- tumor free survivors [3]: 8%

SMILES: N.N.[Cl][Pt][Cl] [cisplatin, cis-diaminodichloroplatinum (II)]
- anticancer effects when administered alone ([8]; CI-1033 PO days 28-37, cisplatin IV days 28, 32, 34): Neither cisplatin nor CI-1033 when administered alone produced meaningful anticancer effects
- tumor growth delay (T-C) ([8]; cisplatin alone 12 mg/kg): 10 days

SMILES: CC(=O)O[C@@]12CO[C@@H]1C[C@H](O)[C@@]1(C)C(=O)[C@H](O)C3=C(C)[C@@H](OC(=O)[C@H](O)[C@@H](NC(=O)OC(C)(C)C)c4ccccc4)C[C@@](O)([C@@H](OC(=O)c4ccccc4)[C@H]21)C3(C)C [docetaxel, reference compound]
- optimum tumor growth delay as single agent [1]: 35.7 days

SMILES: COc1cc([C@@H]2c3cc4c(cc3[C@@H](O[C@@H]3O[C@@H]5CO[C@@H](C)O[C@H]5[C@H](O)[C@H]3O)[C@H]3COC(=O)[C@H]23)OCO4)cc(OC)c1O [etoposide, 4′-demethylepipodophyllotoxin 9-[4,6-0-(R)-ethylidene-(beta)-D-glucopyranoside]]
- delaying the growth of H125 as a single agent ([9]; etoposide IP days 12, 16, 20 at 50 mg/kg, CI-1033 200, 124, 77 mg/kg): relatively ineffective
- tolerability ([9]; etoposide doses 80, 50, 31 mg/kg IP): well tolerated only at the lowest dose tested
- MTD [10]: 50 mg/kg

SMILES: Nc1ccn([C@@H]2O[C@H](CO)[C@@H](O)C2(F)F)c(=O)n1 [gemcitabine, 2′-deoxy-2′,2′-difluoro-cytidine, reference compound]
- loss of initial body weight at terminal sacrifice ([6]; gemcitabine alone 125 mg/kg twice weekly): 4%
- body weight change over the therapy period ([6]; gemcitabine alone 125 mg/kg twice weekly, tumor bearing nude mice): slight weight gain

SMILES: CC(=O)O[C@H]1C(=O)[C@@]2(C)[C@H]([C@H](OC(=O)c3ccccc3)[C@]3(O)C[C@H](OC(=O)[C@H](O)[C@@H](NC(=O)c4ccccc4)c4ccccc4)C(C)=C1C3(C)C)[C@]1(OC(C)=O)CO[C@@H]1C[C@@H]2O [paclitaxel]
- cells undergoing apoptosis [11]: 23%

SMILES: CC[C@@]1(O)C(=O)OCc2c1cc1n(c2=O)Cc2cc3c(CN(C)C)c(O)ccc3nc2-1 [topotecan, (S)-10-[(dimethylamino)methyl]-4-ethyl-4,9-dihydroxy-1H-pyrano[3′,4′:6,7]indolizino[1,2-b]quinoline-3,14-(4H,12H )-dione monohydrochloride]
- anticancer effectiveness measured by tumor growth delay, single agents [12]: meaningful anticancer effectiveness
